# According to patent US10730875B2, “Substituted imidazo[1,2-A]pyridin-2-ylamine compounds, and pharmaceutical compositions and methods of use thereof” (JN Therapeutics, priority 2015, dated 2020):
# Legend:
# [1] = system: human tyrosine kinase 2 (TYK2), recombinant catalytic domain; assay: LanthaScreen TR-FRET enzymatic assay, TYK2; format: biochemical; conditions: ratio of IC50 against TYK2 over IC50 against JAK1
# In short: (§1)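 Insect-cell-expressed catalytic domains (JAK1 aa 866-1154, 440 ng/mL; JAK2 aa 808-1132, 11 ng/mL; JAK3 aa 781-1124, 400 ng/mL; TYK2 aa 833-1187, 200 ng/mL) preincubated 15 min with compound, then reacted 1 h at room temperature with 100 nM GFP-STAT1 and 1 mM ATP. pTyr701 detected by TR-FRET (terbium antibody); IC50 from 10-dose sigmoid fits.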
# [2] = biological target: human tyrosine kinase 2 (TYK2), recombinant catalytic domain (Homo sapiens (Human), UniProt P29597); assay: LanthaScreen TR-FRET enzymatic assay, TYK2; format: biochemical; conditions: TR-FRET, 1 mM ATP, GFP-STAT1 substrate; read-out: Inhibitory Activity IC50 TYK2
# Chain of human tyrosine kinase 2 (TYK2), recombinant catalytic domain (Homo sapiens (Human), UniProt P29597) (P29597 833-1187): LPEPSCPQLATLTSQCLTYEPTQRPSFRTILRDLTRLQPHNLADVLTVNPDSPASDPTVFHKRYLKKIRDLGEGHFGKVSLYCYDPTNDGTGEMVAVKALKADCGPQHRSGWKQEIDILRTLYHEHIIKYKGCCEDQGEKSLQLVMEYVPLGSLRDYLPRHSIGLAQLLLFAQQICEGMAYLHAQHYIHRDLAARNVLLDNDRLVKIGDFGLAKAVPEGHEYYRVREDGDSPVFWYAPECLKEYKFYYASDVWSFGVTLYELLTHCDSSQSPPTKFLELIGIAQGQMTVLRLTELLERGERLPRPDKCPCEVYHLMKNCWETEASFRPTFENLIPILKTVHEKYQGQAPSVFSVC
# In short: as §1
# [3] = Pharmacokinetics in Sprague-Dawley rats (HPLC-MS/MS of plasma); format: in vivo; conditions: rat
# Procedure: The PK parameters of compound 14 were determined in Sprague-Dawley rats (Hubei Provincial Laboratory Animal Research Center) after a single oral (p.o) and intravenous (i.v.) administration using HPLC-MS/MS (Shimadzu LC-20ACXR HPLC coupled with AB Sciex API 4500 Qtrap).
# A sensitive and specific HPLC-MS/MS method was developed for the determination of the compound in rat plasma. Multiple reaction monitoring (MRM) mode was used for the quantification of the compound by monitoring the ion transitions at m/z from 443.1 to 375.1. Compound 2 was used as an internal standard and monitored by the ion transition at m/z from 427.1 to 357.1. Calibration curves were constructed in the range of 1.00-1000 ng/mL in rat plasma extract by a 1/×2 weighted quadratic regression. The regression coefficients obtained were greater than 0.99 and back calculated values comprised in the range of ±15% from their nominal concentration.
# For the intravenous administration, the compound was dissolved in 25% PEG200 in saline and intravenously administrated at a single dose of 1.00 mg/kg. For the oral administration, the compound was suspended in 0.5% sodium carboxymethylcellulose (CMC-Na) solution and intragastrically administrated at a single dose of 5.00 mg/kg. Approximately 0.200 mL of blood sample were collected from orbital venous plexus at 0 (predose), 0.25, 0.5, 1, 2, 4, 8, 12 and 24 hrs post dosing. All samples were placed into EDTA-K2-treated tubes and centrifuged at 3,500 rpm at 4° C. for 10 min to separate the plasma fractions. The plasma samples were stored at −20° C. prior to analysis. The plasma samples were analyzed with the HPLC-MS/MS method.
# [4] = Sprague-Dawley, plasma, IV, single dose 1.00 mg/kg
# [5] = Sprague-Dawley, plasma, PO, single dose 5.00 mg/kg
compound,measurement,setting,value
O=C(Nc1cn2c(-c3ccc(CN4CCS(=O)(=O)CC4)cc3F)cccc2n1)C1CC1 [Compound 14],Selectivity TYK2/JAK1,[1],A′ (A′ represents a ratio of greater than 8)
same,IC50,[2],1000 to 5000 nM
same,F,"[3]; PO, single dose 5.00 mg/kg",46.7 ± 7.3%
same,AUC(0-t),[3]; [4],677 ± 122 ng·h/mL
same,MRT,[3]; [4],1.4 ± 0.2 h
same,clearance,[3]; [4],24.8 mL/min/kg
same,half-life,[3]; [4],1.4 ± 0.3 h
same,Vd,"[3]; Sprague-Dawley, plasma, IV, single dose 1.00 mg/kg, read-out: Vz",2.98 ± 0.912 L/kg
same,AUC(0-t),[3]; [5],1590 ± 253 ng·h/mL
same,Cmax,[3]; [5],571 ± 190 ng/mL
same,MRT,[3]; [5],2.3 ± 0.4 h
same,Tmax,[3]; [5],0.63 ± 0.25 h
same,half-life,[3]; [5],1.9 ± 0.3 h
